Source: patent publication US20260060947A1 (INSTITUT PASTEUR DE MONTEVIDEO, priority 2019, published 2026)

How the values were obtained:
NF-κB-p65 [1] = test: LPS-induced NF-κB-p65 nuclear translocation in BV2 cells (immunocytochemistry); assay type: cell-based, murine; conditions: BANA 10, 20, 30 μM, BA 30 μM or DMF for 3 hrs before LPS 100 ng/ml
Experimental: The effect of BANA on nuclear translocation of NF-κB was studied by immunocytochemistry using murine microglia cell line BV2.
Cells were then treated with BANA (10, 20 and 30 μM) or B.A (30 μM) for 3 hrs. After treatment, cells were stimulated with LPS (100 ng/ml) for 30 minutes. Then, cells were washed and fixed with PFA 4% for 20 minutes at 4° C. and washed with PBS. Immunocytochemistry was performed as follows: cells were permeabilized using 0.5% Triton in PBS for 15 minutes, and then blocked using 5% of BSA for 1 h at room temperature. Rabbit anti-NF-κB-p65 (ab16502, 1/200) and mouse anti-CD11b (BD550219, 1/100) were incubated overnight at 4° C. After that, primary antibodies were removed, washed with PBS 3 times for 10 minutes, and Alexa-fluor-conjugated goat anti-rabbit or goat anti-mouse antibodies (1:1000) were incubated for 2 h at room temperature. After secondary antibodies were removed, cells were covered in glycerol mounting medium with 1/2000 DAPI staining. Cells were analyzed by confocal microscopy using a confocal ZEISS LSM 800. NF-κB-p65+ nuclei were counted and ratio of DAPI to NF-κB-p65 labeling was compared among groups. Data were analyzed using analyzing tools of ImageJ and GraphPad Prism 7 software.

NLRP3 inflammasome = test: Inflammasome activation in THP-1 cells (LPS and ATP), IL-1β ELISA; assay type: cell-based, Human; conditions: 30 μM, in first or second signal (LPS and ATP), compared with vehicle
Experimental: The effect of BANA or BA over NF-κB-dependent gene expression was studied by qPCR using THP-1 cells. THP-1 cells were differentiated into macrophages and treated with BANA (30 μM) or BA (30 μM) for 2 hs, followed by stimulation with LPS (100 ng/mL, for 3-4 h).
For inflammasome activation, THP-1 cells were treated with LPS (as above) followed by exposure to ATP (5 mM, 45 min). IL-1β in the supernatant was then measured by ELISA (B&D OptEIA TM, San Diego, CA, USA).

NF-κB-p65 [2] = test: LPS-induced NF-κB-p65 nuclear translocation in SOD1^G93A primary microglia; assay type: cell-based, rat; conditions: BANA 10-30 μM before LPS
Experimental: FIG. 8D: Confocal images show CD11b-positive SOD1^G93A primary microglia (grey) treated with BANA, BA or vehicle, before LPS stimulation. […] Nuclear NF-κB-p65 colocalizing with DAPI nuclear staining is denoted in yellow.
Nuclear NF-κB-p65 colocalizing with DAPI nuclear staining is denoted in yellow. […] Scale bar=20 μm. […] 2 replicates of 3 independent experiments.
The effects of BANA on LPS- or TNFα-induced NF-κB activation were also assayed in cell cultures of BV2 microglial cell line and primary adult microglia isolated from symptomatic SOD1^G93A rats, and HT-29 NF-κB reporter cell line, respectively.

O=C(O)c1ccccc1 [benzoic acid, reference compound]
LPS-induced NF-κB-p65 nuclear translocation (NF-κB-p65 [1]): devoid of inhibitory effect
release of IL-1β (NLRP3 inflammasome): devoid of anti-inflammatory effects
LPS-induced NF-κB-p65 nuclear translocation (NF-κB-p65 [2]): devoid of inhibitory effect
